Assay results as given in US11753403B2, “EIF4E inhibitors and uses thereof” (PIC Therapeutics, Inc., priority 2020, dated 2023).

Target: Human eIF4E (aa 28-217) / biotin labeled 4G2 peptide (Homo sapiens (Human), UniProt P06730)
Test: Human eIF4E/4G2 binding assay (TR-FRET)
Conditions: Human eIF4E/4G2 TR-FRET binding assay; head says IC50, legend says EC50
Procedure: Example 5. Compound Testing in Human eIF4E/4G2 Binding Assay
Human eIF4E (aa 28-217) with a C-terminal His-tag was expressed in E. coli in inclusion bodies. The protein was solubilized with 8 M urea and purified under denaturing conditions using nickel-charged HisTrap HP columns (GE Healthcare). The purified protein was then refolded by diluting in 20 mM Hepes pH 7.0, 0.5 M NaCl, 1 mM DTT, 1 mM EDTA, 0.5 M arginine plus 6 M urea, and then dialyzing overnight into the same buffer without the urea. The protein was further dialyzed into 20 mM Hepes, pH 6.5, 50 mM NaCl, 1 mM EDTA, 1 mM DTT, and concentrated using Hitrap SP sepharose FF columns (GE Healthcare). The concentrated protein was dialyzed into 20 mM Hepes, pH 7.0, 0.5M NaCl, 5 mM DTT and 10% glycerol, and stored at −80° C. until use.
Test compounds (3.43 mM stock in DMSO) were diluted 2-fold in series in DMSO (10 concentration points). Compound solutions (1.2 μl/well) were added into black 384-well polypropylene microplates (Matrix, Thermal Scientific). Twenty-two microliters per well of Assay Buffer (50 mM NaPi, pH 6.5, 50 mM KCl, 1 mM DTT and 0.5 mg/ml gamma globulin) and eight microliters per well of 82.5 nM purified eIF4E in Assay Buffer were added. The samples were incubated at room temperature (20-23° C.) for 4 hours. Biotin labeled 4G2 peptide (Ac-Lys-Gln-Tyr-Asp-Arg-Glu-Phe-Leu-Leu-Asp-Phe-Gln-Phe-Met-Pro-Lys(Aha-Bio)-NH2, 1.75 μM stock in DMSO) was diluted to 0.14 μM in Assay Buffer (without DTT) and 5 μl/well was added. The samples were incubated at room temperature for 20 min. Five microliters per well of 6.4 nM Eu-streptavidin (Eu-SA, Perkin Elmer) and 80 nM Allophycocyanin (APC)-anti His antibody (Columbia Biosciences) in Assay Buffer (without DTT) were then added and the samples were incubated at room temperature for 20 min.
Assay signals were monitored by reading excitation at 340 nm and emission fluorescence at 615 nm and 665 nm on an Envision reader (Perkin Elmer). Normalized TR-FRET (time-resolved fluorescence resonance energy transfer) assay signal (Rn) was calculated by the formula: Rn=[(A−Ba−C×D)/(D−Bd)]×(Dc−Bd) Where A is the fluorescence intensity of the sample at 665 nm, • D is the fluorescence intensity of the sample at 615 nm, • Ba and Bd are plate backgrounds at 665 nm and 615 nm, respectively, • Dc is the fluorescence intensity of 0.78 nM Eu-SA in the assay buffer at 615 nm The cross-talk factor (C) is determined by the following formula: C=(Ac−Ba)/(Dc−Bd) Where Ac is the fluorescence intensity of 0.78 nM Eu-SA in the assay buffer at 665 nm.
IC50 values were calculated using xLFit program (IDBS). Table 2 below lists EC50 of some compounds, wherein A represents EC50≤1 uM; B represents 1 uM<EC50≤10 uM; and C represents EC50>10 uM.

Chain of Human eIF4E (aa 28-217) / biotin labeled 4G2 peptide (P06730 28-217): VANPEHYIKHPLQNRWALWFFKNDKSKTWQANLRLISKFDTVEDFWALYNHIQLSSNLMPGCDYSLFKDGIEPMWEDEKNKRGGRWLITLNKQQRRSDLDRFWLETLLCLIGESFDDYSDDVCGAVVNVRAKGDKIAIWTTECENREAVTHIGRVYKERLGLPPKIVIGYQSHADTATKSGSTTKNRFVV

Structure (SMILES)	IC50 [µM]
CC(C)c1sc(NCC(Cc2ccccc2)C(=O)O)nc1-c1ccc(Cl)c(Cl)c1 (stereo not drawn) [I-1, 2-benzyl-3-(4-(3,4-dichlorophenyl)-5-isopropylthiazol-2-ylamino)propanoic acid]	≤ 1
CC(C)c1sc(NCC(Cc2cccc3c2OCO3)C(=O)O)nc1-c1ccc(Cl)c(Cl)c1 (stereo not drawn) [I-2]	≤ 1
CC(C)c1sc(NCC(Cc2cccc(O)c2)C(=O)O)nc1-c1ccc(Cl)c(Cl)c1 (stereo not drawn) [I-4]	1 to 10
CC(C)c1sc(NCC(Cc2cccc(F)c2)C(=O)O)nc1-c1ccc(Cl)c(Cl)c1 (stereo not drawn) [I-5]	1 to 10
CC(C)c1sc(NCC(CCc2ccccc2)C(=O)O)nc1-c1ccc(Cl)c(Cl)c1 (stereo not drawn) [I-6]	≤ 1
O=C(O)C(CNc1nc(-c2ccc(Cl)c(Cl)c2)c(C2CC2)s1)Cc1ccccc1 (stereo not drawn) [I-11]	1 to 10
COc1ccccc1CC(CNc1nc(-c2ccc(Cl)c(Cl)c2)c(C2CC2)s1)C(=O)O (stereo not drawn) [I-12]	1 to 10
O=C(O)C(CNc1nc(-c2ccc(Cl)c(Cl)c2)c(C2CC2)s1)Cc1cccc(O)c1 (stereo not drawn) [I-13]	1 to 10
O=C(O)C(CNc1nc(-c2ccc(Cl)c(Cl)c2)c(C2CC2)s1)Cc1cccc(F)c1 (stereo not drawn) [I-14]	1 to 10
O=C(O)C(CCc1ccccc1)CNc1nc(-c2ccc(Cl)c(Cl)c2)c(C2CC2)s1 (stereo not drawn) [I-15]	1 to 10
O=C(O)C(CNc1nc(-c2ccc(Cl)c(Cl)c2)c(C2CC2)s1)Cc1cccc2[nH]ccc12 (stereo not drawn) [I-16]	1 to 10
O=C(O)C(CNc1nc(-c2ccc(Cl)c(Cl)c2)c(C2CC2)s1)Cc1ccc2[nH]ccc2c1 (stereo not drawn) [I-17]	≤ 1
CC(C)Cc1sc(NCC(Cc2cccc3c2OCO3)C(=O)O)nc1-c1ccc(Cl)c(Cl)c1 (stereo not drawn) [I-19]	≤ 1
COc1ccccc1CC(CNc1nc(-c2ccc(Cl)c(Cl)c2)c(CC(C)C)s1)C(=O)O (stereo not drawn) [I-20]	≤ 1
CC(C)Cc1sc(NCC(Cc2cccc(O)c2)C(=O)O)nc1-c1ccc(Cl)c(Cl)c1 (stereo not drawn) [I-21]	1 to 10
CC(C)Cc1sc(NCC(Cc2cccc(F)c2)C(=O)O)nc1-c1ccc(Cl)c(Cl)c1 (stereo not drawn) [I-22]	≤ 1
CC(C)Cc1sc(NCC(CCc2ccccc2)C(=O)O)nc1-c1ccc(Cl)c(Cl)c1 (stereo not drawn) [I-23]	≤ 1
CC(C)Cc1sc(NCC(Cc2cccc3[nH]ccc23)C(=O)O)nc1-c1ccc(Cl)c(Cl)c1 (stereo not drawn) [I-25]	≤ 1
CC(C)Cc1sc(NCC(Cc2c[nH]c3ccccc23)C(=O)O)nc1-c1ccc(Cl)c(Cl)c1 (stereo not drawn) [I-26]	1 to 10
CC(C)Cc1sc(NCC(Cc2ccc3[nH]ccc3c2)C(=O)O)nc1-c1ccc(Cl)c(Cl)c1 (stereo not drawn) [I-27]	≤ 1
CC(C)c1sc(NCC(Cc2ccccc2)C(=O)O)nc1-c1ccc(Cl)cc1 (stereo not drawn) [I-38]	1 to 10

Structure (SMILES)	IC50 [µM]
CC(C)c1sc(NCC(Cc2cccc(O)c2)C(=O)O)nc1-c1ccc(Cl)cc1 (stereo not drawn) [I-41]	1 to 10
CC(C)c1sc(NCC(CCc2ccccc2)C(=O)O)nc1-c1ccc(Cl)cc1 (stereo not drawn) [I-43]	1 to 10
CC(C)Cc1sc(N(CCC(=O)O)Cc2ccccc2)nc1-c1ccc(Cl)c(Cl)c1 [I-47, 3-(benzyl(4-(3,4-dichlorophenyl)-5-isobutylthiazol-2-yl)amino)propanoic acid]	≤ 1
CC(C)Cc1sc(N(CCC(=O)O)Cc2cccc3c2OCO3)nc1-c1ccc(Cl)c(Cl)c1 [I-48]	≤ 1
COc1ccccc1CN(CCC(=O)O)c1nc(-c2ccc(Cl)c(Cl)c2)c(CC(C)C)s1 [I-49]	≤ 1
CC(C)Cc1sc(N(CCC(=O)O)Cc2ccccc2O)nc1-c1ccc(Cl)c(Cl)c1 [I-50]	1 to 10
CC(C)Cc1sc(N(CCC(=O)O)Cc2cccc(F)c2)nc1-c1ccc(Cl)c(Cl)c1 [I-51]	≤ 1
CC(C)Cc1sc(N(CCC(=O)O)CCc2ccccc2)nc1-c1ccc(Cl)c(Cl)c1 [I-52]	≤ 1
CC(C)Cc1sc(N(CCC(=O)O)Cc2cccc3[nH]ccc23)nc1-c1ccc(Cl)c(Cl)c1 [I-53, 3-(((1H-indol-4-yl)methyl)(4-(3,4-dichlorophenyl)-5-isobutylthiazol-2-yl)amino)propanoic acid]	1 to 10
CC(C)Cc1sc(N(CCC(=O)O)Cc2c[nH]c3ccccc23)nc1-c1ccc(Cl)c(Cl)c1 [I-54]	1 to 10
CC(C)Cc1sc(N(CCC(=O)O)Cc2ccc3[nH]ccc3c2)nc1-c1ccc(Cl)c(Cl)c1 [I-55]	≤ 1
O=C(O)CCN(Cc1ccccc1)c1nc(-c2ccc(Cl)c(Cl)c2)c(C2CC2)s1 [I-56]	1 to 10
O=C(O)CCN(CCc1ccccc1)c1nc(-c2ccc(Cl)c(Cl)c2)c(C2CC2)s1 [I-57]	≤ 1
CC(C)Cc1sc(N(CCC(=O)O)CCC(=O)O)nc1-c1ccc(Cl)c(Cl)c1 [I-58, 3,3′-(4-(3,4-dichlorophenyl)-5-isobutylthiazol-2-ylazanediyl)dipropanoic acid]	> 10
CC(C)Cc1sc(N(CC(=O)O)Cc2ccccc2)nc1-c1ccc(Cl)c(Cl)c1 [I-59]	≤ 1
CC(C)Cc1sc(N(CCc2ccccc2)CC(=O)O)nc1-c1ccc(Cl)c(Cl)c1 [I-60]	≤ 1
CC(C)Cc1sc(N(CCC(N)=O)CCC(=O)O)nc1-c1ccc(Cl)c(Cl)c1 [I-61]	> 10
CC(C)Cc1sc(N(CCC(=O)O)Cc2cccnc2)nc1-c1ccc(Cl)c(Cl)c1 [I-62]	1 to 10
CC(C)Cc1sc(N(CCC(=O)O)Cc2ccncc2)nc1-c1ccc(Cl)c(Cl)c1 [I-63]	1 to 10
CC(C)Cc1sc(N(CCC(=O)O)CC(N)=O)nc1-c1ccc(Cl)c(Cl)c1 [I-64]	1 to 10

Further lines, results first:

IC50 [µM]	Structure (SMILES)
≤ 1	COc1ccccc1CC(CNc1nc(-c2ccc(Cl)c(Cl)c2)c(C(C)C)s1)C(=O)O (stereo not drawn) [I-3]
≤ 1	CC(C)c1sc(NCC(Cc2cccc3cc[nH]c23)C(=O)O)nc1-c1ccc(Cl)c(Cl)c1 (stereo not drawn) [I-7, 2-((1H-indol-7-yl)methyl)-3-(4-(3,4-dichlorophenyl)-5-isopropylthiazol-2-ylamino) propanoic acid]
1 to 10	CC(C)c1sc(NCC(Cc2cccc3[nH]ccc23)C(=O)O)nc1-c1ccc(Cl)c(Cl)c1 (stereo not drawn) [I-8]
1 to 10	CC(C)c1sc(NCC(Cc2c[nH]c3ccccc23)C(=O)O)nc1-c1ccc(Cl)c(Cl)c1 (stereo not drawn) [I-9]
1 to 10	CC(C)c1sc(NCC(Cc2ccc3[nH]ccc3c2)C(=O)O)nc1-c1ccc(Cl)c(Cl)c1 (stereo not drawn) [I-10]
1 to 10	CC(C)Cc1sc(NCC(Cc2cccc3cc[nH]c23)C(=O)O)nc1-c1ccc(Cl)c(Cl)c1 (stereo not drawn) [I-24]
> 10	COc1cccc(-c2nc(NCC(Cc3ccccc3)C(=O)O)sc2C(C)C)c1 (stereo not drawn) [I-28]
1 to 10	COc1cccc(-c2nc(NCC(Cc3cccc4c3OCO4)C(=O)O)sc2C(C)C)c1 (stereo not drawn) [I-29]
1 to 10	COc1cccc(-c2nc(NCC(Cc3ccccc3OC)C(=O)O)sc2C(C)C)c1 (stereo not drawn) [I-30]
> 10	COc1cccc(-c2nc(NCC(Cc3cccc(O)c3)C(=O)O)sc2C(C)C)c1 (stereo not drawn) [I-31]
1 to 10	COc1cccc(-c2nc(NCC(Cc3cccc(F)c3)C(=O)O)sc2C(C)C)c1 (stereo not drawn) [I-32]
1 to 10	COc1cccc(-c2nc(NCC(CCc3ccccc3)C(=O)O)sc2C(C)C)c1 (stereo not drawn) [I-33]
1 to 10	COc1cccc(-c2nc(NCC(Cc3cccc4cc[nH]c34)C(=O)O)sc2C(C)C)c1 (stereo not drawn) [I-34]
1 to 10	COc1cccc(-c2nc(NCC(Cc3cccc4[nH]ccc34)C(=O)O)sc2C(C)C)c1 (stereo not drawn) [I-35]
1 to 10	COc1cccc(-c2nc(NCC(Cc3c[nH]c4ccccc34)C(=O)O)sc2C(C)C)c1 (stereo not drawn) [I-36]
1 to 10	COc1cccc(-c2nc(NCC(Cc3ccc4[nH]ccc4c3)C(=O)O)sc2C(C)C)c1 (stereo not drawn) [I-37]
1 to 10	CC(C)c1sc(NCC(Cc2cccc3c2OCO3)C(=O)O)nc1-c1ccc(Cl)cc1 (stereo not drawn) [I-39]
1 to 10	COc1ccccc1CC(CNc1nc(-c2ccc(Cl)cc2)c(C(C)C)s1)C(=O)O (stereo not drawn) [I-40]
1 to 10	CC(C)c1sc(NCC(Cc2cccc(F)c2)C(=O)O)nc1-c1ccc(Cl)cc1 (stereo not drawn) [I-42]
1 to 10	CC(C)c1sc(NCC(Cc2cccc3[nH]ccc23)C(=O)O)nc1-c1ccc(Cl)cc1 (stereo not drawn) [I-44]
1 to 10	CC(C)c1sc(NCC(Cc2c[nH]c3ccccc23)C(=O)O)nc1-c1ccc(Cl)cc1 (stereo not drawn) [I-45]
1 to 10	CC(C)c1sc(NCC(Cc2ccc3[nH]ccc3c2)C(=O)O)nc1-c1ccc(Cl)cc1 (stereo not drawn) [I-46]
